Reference: ChEMBL document CHEMBL4715689, “Novel PTP1B inhibitors identified by DNA display of fragment pairs” (Bioorg Med Chem Lett, 2016)
The source made the active and inactive calls. The rule behind the calls is not given here.

Columns and labels:
[1] = molecular target: T1, Tyrosine-protein phosphatase non-receptor type 1 (Homo sapiens, UniProt P18031)
T1 sequence (P18031 whole entry): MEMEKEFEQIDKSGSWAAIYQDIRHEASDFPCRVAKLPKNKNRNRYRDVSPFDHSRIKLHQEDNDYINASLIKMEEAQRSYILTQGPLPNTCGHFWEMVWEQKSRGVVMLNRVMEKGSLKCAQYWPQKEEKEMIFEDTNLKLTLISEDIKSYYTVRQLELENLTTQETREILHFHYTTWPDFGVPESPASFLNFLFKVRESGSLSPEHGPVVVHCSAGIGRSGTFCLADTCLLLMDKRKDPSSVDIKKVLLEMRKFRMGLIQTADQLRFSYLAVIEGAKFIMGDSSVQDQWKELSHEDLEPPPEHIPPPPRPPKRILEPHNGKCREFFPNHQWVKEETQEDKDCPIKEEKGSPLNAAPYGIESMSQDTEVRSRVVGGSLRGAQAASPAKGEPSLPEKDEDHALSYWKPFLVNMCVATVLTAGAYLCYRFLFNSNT
Description: Inhibition of N-terminal GST-tagged recombinant human PTP1B (1 to 321 residues) expressed in Escherichia coli using DifMup as substrate preincubated for 30 mins followed by substrate addition and measured immediately

[2] = molecular target: T1, Tyrosine-protein phosphatase non-receptor type 1; remark: listed apart in the source
Description: Binding affinity to N-terminal GST-tagged recombinant human PTP1B (1 to 321 residues) expressed in Escherichia coli assessed as dissociation constant and measured for 120 sec by biolayer interferometry

[3] = molecular target: T2, Tyrosine-protein phosphatase non-receptor type 2 (Homo sapiens, UniProt P17706); test: Inhibition of recombinant human TCPTP (1 to 317 residues) expressed in Escherichia coli using DifMup as substrate preincubated for 30 mins followed by substrate addition and measured immediately
T2 sequence (P17706 whole entry): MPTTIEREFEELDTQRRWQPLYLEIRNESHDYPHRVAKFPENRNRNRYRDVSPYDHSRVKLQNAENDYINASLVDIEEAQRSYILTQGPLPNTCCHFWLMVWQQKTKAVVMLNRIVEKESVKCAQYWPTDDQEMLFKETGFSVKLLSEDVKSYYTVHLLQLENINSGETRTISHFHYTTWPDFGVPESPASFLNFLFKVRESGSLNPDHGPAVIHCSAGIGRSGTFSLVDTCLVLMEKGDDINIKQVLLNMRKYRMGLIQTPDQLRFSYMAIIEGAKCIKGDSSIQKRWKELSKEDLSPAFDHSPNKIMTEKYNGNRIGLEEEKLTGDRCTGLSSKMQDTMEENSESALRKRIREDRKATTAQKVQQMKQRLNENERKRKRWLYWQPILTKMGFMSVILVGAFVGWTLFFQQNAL

BT-474 = test: Growth inhibition of human BT474 cells assessed as reduction in cell viability after 48 hrs by MTT assay; type: functional

| SMILES | Ki [1] [nM] | Kd [2] [nM] | Ki [3] [nM] | Activity (BT-474) | GI50 (BT-474) [nM] |
| --- | --- | --- | --- | --- | --- |
| CCCCC(NC1=NS(=O)(=O)c2ccccc21)C(=O)NC[C@@H](NC(=O)C1(NC(=O)[C@H](CC(C)(C)C)n2cc(CC3CCCCC3)nn2)CC1)C(=O)NC(CCCCNC(=O)CCCC[C@@H]1SCC2NC(=O)NC21)C(N)=O (some centres undefined) | 2200 | 210 | 7600 |  |  |
| CCC(C)C(NC1=NS(=O)(=O)c2ccccc21)C(=O)NC[C@@H](NC(=O)C1CCCC(NC(=O)C(C2CC2)n2cc(CC3CCCCC3)nn2)C1)C(=O)NC(CCCCNC(=O)CCCC[C@@H]1SCC2NC(=O)NC21)C(N)=O (some centres undefined) | 3400 | 240 | 800 |  |  |
| CCCCC(NC1=NS(=O)(=O)c2ccccc21)C(=O)NCC(NC(=O)COCCOCCNC(=O)C(C1CC1)n1cc(-c2cccc(OC)c2)nn1)C(=O)NC(CCCCNC(=O)CCCC[C@@H]1SCC2NC(=O)NC21)C(N)=O (some centres undefined) | 2900 | 220 | 7010 |  |  |
| CCCCC(NC1=NS(=O)(=O)c2ccccc21)C(=O)NCC(NC(=O)c1ccccc1NC(=O)c1n[nH]c2ccc([N+](=O)[O-])cc12)C(N)=O (centres undefined) | 1200 | 270 | > 100000 | inactive |  |
| CCCCC(NC1=NS(=O)(=O)c2ccccc21)C(=O)NCC(NC(=O)CC1(NC(=O)C(C2CC2)n2cc(CC3CCCCC3)nn2)CCCCC1)C(=O)NC(CCCCNC(=O)CCCC[C@@H]1SCC2NC(=O)NC21)C(N)=O (some centres undefined) | 16800 | 120 | 2700 |  |  |
| CC(C)C(NC1=NS(=O)(=O)c2ccccc21)C(=O)NCC(NC(=O)c1n[nH]c2ccc([N+](=O)[O-])cc12)C(N)=O (centres undefined) |  |  | > 20000 | inactive |  |
| CCCCC(NC1=NS(=O)(=O)c2ccccc21)C(=O)NC[C@@H](NC(=O)C1CCCC(NC(=O)[C@H](CC(C)(C)C)n2cc(CC3CCCCC3)nn2)C1)C(N)=O (some centres undefined) | 3100 | 90 | 12200 |  |  |
| CCC(C)C(NC1=NS(=O)(=O)c2ccccc21)C(=O)NC[C@@H](NC(=O)CC1(NC(=O)[C@H](CC(C)(C)C)n2cc(CC3CCCCC3)nn2)CCCCC1)C(N)=O (some centres undefined) | 1700 | 290 | > 100000 |  | 900 |
| CCCCC(NC1=NS(=O)(=O)c2ccccc21)C(=O)NC[C@@H](NC(=O)C1CCCC(NC(=O)[C@H](CC(C)(C)C)n2cc(CC3CCCCC3)nn2)C1)C(=O)NC(CCCCNC(=O)CCCC[C@@H]1SCC2NC(=O)NC21)C(N)=O (some centres undefined) | 3100 | 90 | 12200 |  |  |
| CCCCC(NC1=NS(=O)(=O)c2ccccc21)C(=O)NCC(NC(=O)CC1(NC(=O)C(C2CC2)n2cc(CC3CCCCC3)nn2)CCCCC1)C(N)=O (centres undefined) | 16800 | 120 | 2700 |  |  |
| CCCCC(NC1=NS(=O)(=O)c2ccccc21)C(=O)NC[C@@H](NC(=O)C1(NC(=O)[C@H](CC(C)(C)C)n2cc(CC3CCCCC3)nn2)CC1)C(N)=O (some centres undefined) | 2200 | 210 | 7600 |  |  |
| CCC(C)C(NC1=NS(=O)(=O)c2ccccc21)C(=O)NC[C@@H](NC(=O)C1CCCC(NC(=O)C(C2CC2)n2cc(CC3CCCCC3)nn2)C1)C(N)=O (some centres undefined) | 3400 | 240 | 800 |  |  |
| CCCCC(NC1=NS(=O)(=O)c2ccccc21)C(=O)NCC(NC(=O)c1ccccc1NC(=O)c1n[nH]c2ccc([N+](=O)[O-])cc12)C(=O)NC(CCCCNC(=O)CCCC[C@@H]1SCC2NC(=O)NC21)C(N)=O (some centres undefined) | 1200 | 270 | > 100000 | inactive |  |
| NC(=O)C(CNC(=O)CCCCCNC1=NS(=O)(=O)c2ccccc21)NC(=O)Cc1ccc(CNC(=O)[C@H](C2CC2)n2cc(CC3CCCCC3)nn2)cc1 (some centres undefined) | 6800 | 110 | 3010 |  |  |
| CC(C)C(NC1=NS(=O)(=O)c2ccccc21)C(=O)NCC(NC(=O)c1n[nH]c2ccc([N+](=O)[O-])cc12)C(=O)NC(CCCCNC(=O)CCCC[C@@H]1SCC2NC(=O)NC21)C(N)=O (some centres undefined) | 250 | 50 | > 20000 | inactive |  |
| CC(C)C(NC1=NS(=O)(=O)c2ccccc21)C(=O)NC[C@@H](NC(=O)CC1(NC(=O)[C@H](CC(C)(C)C)n2cc(CC3CCCCC3)nn2)CCCCC1)C(=O)NC(CCCCNC(=O)CCCC[C@@H]1SCC2NC(=O)NC21)C(N)=O (some centres undefined) | 3500 | 100 | 6200 |  |  |
| CC(C)C(NC1=NS(=O)(=O)c2ccccc21)C(=O)NC[C@@H](NC(=O)CC1(NC(=O)[C@H](CC(C)(C)C)n2cc(CC3CCCCC3)nn2)CCCCC1)C(N)=O (some centres undefined) | 3500 | 100 | 6200 |  |  |
| CCCCC(NC1=NS(=O)(=O)c2ccccc21)C(=O)NCC(NC(=O)COCCOCCNC(=O)C(C1CC1)n1cc(-c2cccc(OC)c2)nn1)C(N)=O (centres undefined) | 2900 | 220 | 7010 |  |  |
| CCC(C)C(NC1=NS(=O)(=O)c2ccccc21)C(=O)NC[C@@H](NC(=O)CC1(NC(=O)[C@H](CC(C)(C)C)n2cc(CC3CCCCC3)nn2)CCCCC1)C(=O)NC(CCCCNC(=O)CCCC[C@@H]1SCC2NC(=O)NC21)C(N)=O (some centres undefined) | 1700 | 290 | > 100000 |  | 900 |
| NC(=O)C(CCCCNC(=O)CCCC[C@@H]1SCC2NC(=O)NC21)NC(=O)C(CNC(=O)CCCCCNC1=NS(=O)(=O)c2ccccc21)NC(=O)Cc1ccc(CNC(=O)[C@H](C2CC2)n2cc(CC3CCCCC3)nn2)cc1 (some centres undefined) | 6800 | 110 | 3010 |  |  |
